{
  "source": "paper PMC6078987",
  "about": "“Molecular insights into antibiotic resistance - how a binding protein traps albicidin” (Nature Communications, 2018)",
  "key": {"AlbAS": {"biological_target": "T1, AlbAS (Klebsiella oxytoca, UniProt Q8KRS7)", "T1 sequence (Q8KRS7 1-221)": "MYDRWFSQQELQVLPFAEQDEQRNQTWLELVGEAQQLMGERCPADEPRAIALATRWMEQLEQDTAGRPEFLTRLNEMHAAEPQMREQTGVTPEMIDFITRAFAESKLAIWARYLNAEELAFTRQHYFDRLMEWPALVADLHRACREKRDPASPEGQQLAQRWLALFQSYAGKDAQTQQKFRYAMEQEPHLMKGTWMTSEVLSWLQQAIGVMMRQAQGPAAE", "assay": "Fluorescence quenching binding assay (tryptophan fluorescence) with AlbAS", "procedure": "(§1) Fluorescence quenching measurements were performed by monitoring tryptophan fluorescence of AlbAS (20 nM), AlbAL (20 nM), AlbASNTD, and AlbASCTD (100 nM) on a FluoroMax 2 spectrometer from Horiba (Potsdam, Germany). The excitation wavelength was set to λexc = 280 nm. Emission spectra were recorded from λem = 290–450 nm with a scanning speed of 1 nm s^−1 and an integration time of 1 s. The excitation and emission slit widths were set to 8 and 4 nm, respectively. Proteins were solved in 50 mM sodium phosphate buffer with 150 mM NaCl and 0.01% DMSO at pH 6.8. All measurements were performed twice and the standard deviation is given for the Kd and the Hill factor n. Data evaluation was performed by integration of the emission band (318–410 nm for AlbAS, 316–412 nm for AlbAL, and 319–390 nm for AlbASNTD and AlbASCTD) for every titration step. The area under the curve (AUC) of the buffer blank (buffer with 0.01% DMSO) was subtracted from the measured titration data. The quenching factor was determined by subtraction of AUCs for each titration step from the AUC of the protein in the absence of ligand. For determination of the AlbAS– and AlbAL–albicidin Kd values, the data were fitted to Eq. (2).2 Y=Bmax[L]^n/Kdn+[L]^n where [L], n, and Bmax denote the total ligand concentration, the Hill coefficient, and the maximum binding capacity of the protein, respectively.\nFor the determination of the Kd for AlbAS–compound 7 the data were fitted to Eq. (3).3 Y=Pt+L+Kd-Pt+L+Kd^2-4PtL/2 where Pt is the total protein concentration."}, "AlbAL [1]": {"biological_target": "T2, AlbAL (Klebsiella oxytoca, UniProt A0A9P0U153)", "T2 sequence (A0A9P0U153 entry or part of it)": "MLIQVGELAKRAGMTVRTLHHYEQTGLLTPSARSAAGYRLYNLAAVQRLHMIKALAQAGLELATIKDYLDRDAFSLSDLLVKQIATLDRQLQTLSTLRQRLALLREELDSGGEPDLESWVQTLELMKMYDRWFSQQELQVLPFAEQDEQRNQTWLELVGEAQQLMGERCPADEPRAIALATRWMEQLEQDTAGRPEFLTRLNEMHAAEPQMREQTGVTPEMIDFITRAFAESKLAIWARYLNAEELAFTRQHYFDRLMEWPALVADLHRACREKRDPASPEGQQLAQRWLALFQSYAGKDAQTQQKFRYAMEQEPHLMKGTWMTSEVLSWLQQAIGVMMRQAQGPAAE", "assay": "Fluorescence quenching binding assay with AlbAL", "procedure": "as §1"}, "AlbASNTD": {"biological_target": "AlbASNTD (Klebsiella oxytoca, UniProt Q8KRS7)", "assay": "Fluorescence quenching binding assay with AlbASNTD", "conditions": "AlbASNTD 100 nM, n constrained to 1", "procedure": "as §1"}, "AlbAL [2]": {"biological_target": "T2, AlbAL", "assay": "CD-detected thermal unfolding of AlbAL", "format": "binding", "conditions": "1.5-fold ligand, 20 µM protein; AlbAL alone 71 °C", "procedure": "For determination of the melting temperature and information on protein-ligand stability, CD measurements were performed on a J-815 CD spectrometer (Jasco, Groß-Umstadt, Germany). Protein samples (2.0 mM for AlbAS and 0.2 mM for AlbAL) were saturated with 1.5-fold albicidin and diluted to a protein concentration of 20 μM in order to ensure a final DMSO content of only 0.05% for AlbAS and 0.5% for AlbAL. A volume of 250 μL of the reaction mixture was transferred into a quartz cuvette with 1 mm path length. Six far-UV spectra were accumulated in a wavelength range of 195–300 nm (203–300 nm for AlbAL) at three different temperatures (10, 21, and 90 °C) with a scanning speed of 50 nm s^−1. For evaluation of the spectra the measured buffer blank (50 mM sodium hydrogen phosphate and 100 mM NaCl, pH 6.8) was subtracted from the averaged spectra. The temperature curves were recorded from 10–90 °C in 0.5 °C min^−1 steps while monitoring the ellipticity at 215 nm (218 nm for ALbAL). […] The melting temperatures of AlbAS, AlbAS–albicidin, AlbAS–compound 5, AlbAS–compound 7, AlbAL, and AlbAL–albicidin were determined by nonlinear regression of the measured data using Eq. (1). […] The Tm was thus determined by fitting the second transition representing the stabilized domain/species. […]"}, "E. coli DH5α": {"system": "E. coli DH5α", "assay": "Agar diffusion assay", "format": "cell-based", "procedure": "To verify the neutralizing ability of AlbAS, AlbAL, AlbASM, AlbASCTD, or AlbASNTD against different compounds, agar diffusion assays with the respective compounds were performed. An overnight culture of E. coli DH5α was diluted to an OD600 of 0.05 with 0.75% LB-agar. The protein-albicidin reaction mixture consisted of a 1:1 mixture of 40 μM albicidin (or derivatives) with 40 μM protein (either AlbAS or its variants AlbAL, AlbASM, AlbASNTD, and AlbASCTD). The mixture was incubated for 20 min at room temperature in the dark. Reaction mixtures of 30 μL were transferred in triplicates of 2 mm holes on the inoculated agar plate. The plates were evaluated concerning growth-inhibition zone after incubation for 18 h at 37 °C."}},
  "note": "Where “and” joins values, the source holds several entries; their conditions need not be identical. Equal entries are not always repeated. Entries after “also recorded” stand apart in the source; their conditions may differ.",
  "data": [
    {"smiles": "COc1c(NC(=O)c2ccc(NC(=O)c3ccc(NC(=O)[C@H](CC#N)NC(=O)c4ccc(NC(=O)/C(C)=C/c5ccc(O)cc5)cc4)cc3)c(OC)c2O)ccc(C(=O)O)c1O", "note": "[albicidin]", "values": [
      {"measurement": "Hill coefficient, n", "setting": "AlbAS; AlbAS 20 nM, fluorescence quenching", "result": "3.0 ± 0.5"},
      {"measurement": "Kd", "setting": "AlbAS; AlbAS 20 nM, fluorescence quenching, pH 6.8", "result": "≤ 5.6 nM and 5.6 nM"},
      {"measurement": "quenching of AlbAS emission", "setting": "AlbAS; maximal quenching by ligand", "result": 100, "unit": "%"},
      {"measurement": "Kd", "setting": "AlbAL [1]", "result": "7.4 ± 0.9", "unit": "nM"},
      {"measurement": "Hill coefficient, n", "setting": "AlbAL [1]; AlbAL 20 nM, fluorescence quenching", "result": "2.0 ± 0.2"},
      {"measurement": "Kd", "setting": "AlbASNTD", "result": "3400 ± 200", "unit": "nM"},
      {"measurement": "melting temperature Tm of AlbAL upon ligand binding", "setting": "AlbAL [2]", "result": 74, "unit": "°C"},
      {"measurement": "neutralization of antibacterial activity by AlbAL", "setting": "E. coli DH5α; 40 µM compound pre-incubated with 40 µM AlbAL", "result": "albicidin-neutralizing effect"},
      {"measurement": "neutralization of antibacterial activity by AlbAS", "setting": "E. coli DH5α; 40 µM compound pre-incubated with 40 µM AlbAS", "result": "albicidin-neutralizing effect"},
      {"measurement": "neutralization of antibacterial activity by AlbASCTD", "setting": "E. coli DH5α; 40 µM compound with 40 µM AlbASCTD", "result": "failed to suppress the antibacterial effects; also recorded: not able to neutralize albicidin"},
      {"measurement": "neutralization of antibacterial activity by AlbASM (N75A, R181A, Q205A)", "setting": "E. coli DH5α; 40 µM compound with 40 µM AlbASM", "result": "not capable of efficiently suppressing the antibacterial activity"},
      {"measurement": "neutralization of antibacterial activity by AlbASNTD", "setting": "E. coli DH5α; 40 µM compound with 40 µM AlbASNTD", "result": "failed to suppress the antibacterial effects; also recorded: not able to neutralize albicidin"}
    ]}
  ]
}
